System: Mitochondria-located protein genes
Assay: DNA chip mRNA expression in yeast, mitochondria-located protein genes (Table 2)
Type: cell-based, Saccharomyces cerevisiae S288C
Settings: cells incubated two hours with the chemical substance
In short: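 Whole-genome yeast DNA chip hybridization (65° C., >12 h) of Cy-labeled cDNA from S288C cells exposed 2 h at 25° C. to a sub-lethal toxicant dose in YPD; value is intensity relative to chemical-free control.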

## COc1cc(CNC(=O)CCCCC=CC(C)C)ccc1O [(12), 8-methyl-N-vanillyl-6-nonenamide]
Yeast gene YJR121W
  The level of expressed mRNA in the presence of chemical substance/The level of expressed mRNA in the absence of chemical substance: 0.8
Yeast gene YKL003C
  The level of expressed mRNA in the presence of chemical substance/The level of expressed mRNA in the absence of chemical substance: 0.7
Yeast gene YKL016C
  The level of expressed mRNA in the presence of chemical substance/The level of expressed mRNA in the absence of chemical substance: 1.0
Yeast gene YKL141W
  The level of expressed mRNA in the presence of chemical substance/The level of expressed mRNA in the absence of chemical substance: 0.8
Yeast gene YKL142W
  The level of expressed mRNA in the presence of chemical substance/The level of expressed mRNA in the absence of chemical substance: 1.9
Yeast gene YKL148C
  The level of expressed mRNA in the presence of chemical substance/The level of expressed mRNA in the absence of chemical substance: 0.8
Yeast gene YKL170W
  The level of expressed mRNA in the presence of chemical substance/The level of expressed mRNA in the absence of chemical substance: 0.8
Yeast gene YKL194C
  The level of expressed mRNA in the presence of chemical substance/The level of expressed mRNA in the absence of chemical substance: 0.6
Yeast gene YKR066C
  The level of expressed mRNA in the presence of chemical substance/The level of expressed mRNA in the absence of chemical substance: 0.9
Yeast gene YLL041C
  The level of expressed mRNA in the presence of chemical substance/The level of expressed mRNA in the absence of chemical substance: 0.8
Yeast gene YLR038C
  The level of expressed mRNA in the presence of chemical substance/The level of expressed mRNA in the absence of chemical substance: 0.6
Yeast gene YLR259C
  The level of expressed mRNA in the presence of chemical substance/The level of expressed mRNA in the absence of chemical substance: 0.7
Yeast gene YLR295C
  The level of expressed mRNA in the presence of chemical substance/The level of expressed mRNA in the absence of chemical substance: 0.5
Yeast gene YLR304C
  The level of expressed mRNA in the presence of chemical substance/The level of expressed mRNA in the absence of chemical substance: 1.0
Yeast gene YLR348C
  The level of expressed mRNA in the presence of chemical substance/The level of expressed mRNA in the absence of chemical substance: 0.9
Yeast gene YLR395C
  The level of expressed mRNA in the presence of chemical substance/The level of expressed mRNA in the absence of chemical substance: 0.6
Yeast gene YML054C
  The level of expressed mRNA in the presence of chemical substance/The level of expressed mRNA in the absence of chemical substance: 1.8
Yeast gene YML120C
  The level of expressed mRNA in the presence of chemical substance/The level of expressed mRNA in the absence of chemical substance: 0.9
Yeast gene YML129C
  The level of expressed mRNA in the presence of chemical substance/The level of expressed mRNA in the absence of chemical substance: 0.8
Yeast gene YMR023C
  The level of expressed mRNA in the presence of chemical substance/The level of expressed mRNA in the absence of chemical substance: 0.7
Yeast gene YMR035W
  The level of expressed mRNA in the presence of chemical substance/The level of expressed mRNA in the absence of chemical substance: 0.5
Yeast gene YMR083W
  The level of expressed mRNA in the presence of chemical substance/The level of expressed mRNA in the absence of chemical substance: 0.7
Yeast gene YMR089C
  The level of expressed mRNA in the presence of chemical substance/The level of expressed mRNA in the absence of chemical substance: 0.8
Yeast gene YMR152W
  The level of expressed mRNA in the presence of chemical substance/The level of expressed mRNA in the absence of chemical substance: 1.3
Yeast gene YMR203W
  The level of expressed mRNA in the presence of chemical substance/The level of expressed mRNA in the absence of chemical substance: 0.7
Yeast gene YMR267W
  The level of expressed mRNA in the presence of chemical substance/The level of expressed mRNA in the absence of chemical substance: 0.8
Yeast gene YNL055C
  The level of expressed mRNA in the presence of chemical substance/The level of expressed mRNA in the absence of chemical substance: 1.7
Yeast gene YNL071W
  The level of expressed mRNA in the presence of chemical substance/The level of expressed mRNA in the absence of chemical substance: 1.3
Yeast gene YNL073W
  The level of expressed mRNA in the presence of chemical substance/The level of expressed mRNA in the absence of chemical substance: 0.7
Yeast gene YNL104C
  The level of expressed mRNA in the presence of chemical substance/The level of expressed mRNA in the absence of chemical substance: 1.1
Yeast gene YNL256W
  The level of expressed mRNA in the presence of chemical substance/The level of expressed mRNA in the absence of chemical substance: 0.6
Yeast gene YOL096C
  The level of expressed mRNA in the presence of chemical substance/The level of expressed mRNA in the absence of chemical substance: 1.2
Yeast gene YOR020C
  The level of expressed mRNA in the presence of chemical substance/The level of expressed mRNA in the absence of chemical substance: 0.8
Yeast gene YOR037W
  The level of expressed mRNA in the presence of chemical substance/The level of expressed mRNA in the absence of chemical substance: 1.2
Yeast gene YOR100C
  The level of expressed mRNA in the presence of chemical substance/The level of expressed mRNA in the absence of chemical substance: 0.8
Yeast gene YOR130C
  The level of expressed mRNA in the presence of chemical substance/The level of expressed mRNA in the absence of chemical substance: 0.9
Yeast gene YOR142W
  The level of expressed mRNA in the presence of chemical substance/The level of expressed mRNA in the absence of chemical substance: 0.8
Yeast gene YOR150W
  The level of expressed mRNA in the presence of chemical substance/The level of expressed mRNA in the absence of chemical substance: 0.8
Yeast gene YOR176W
  The level of expressed mRNA in the presence of chemical substance/The level of expressed mRNA in the absence of chemical substance: 1.3
Yeast gene YOR187W
  The level of expressed mRNA in the presence of chemical substance/The level of expressed mRNA in the absence of chemical substance: 0.8
Yeast gene YOR316C
  The level of expressed mRNA in the presence of chemical substance/The level of expressed mRNA in the absence of chemical substance: 1.1
Yeast gene YPL040C
  The level of expressed mRNA in the presence of chemical substance/The level of expressed mRNA in the absence of chemical substance: 0.9
Yeast gene YPL134C
  The level of expressed mRNA in the presence of chemical substance/The level of expressed mRNA in the absence of chemical substance: 0.8
Yeast gene YPL135W
  The level of expressed mRNA in the presence of chemical substance/The level of expressed mRNA in the absence of chemical substance: 1.1
Yeast gene YPL215W
  The level of expressed mRNA in the presence of chemical substance/The level of expressed mRNA in the absence of chemical substance: 0.7
Yeast gene YPL262W
  The level of expressed mRNA in the presence of chemical substance/The level of expressed mRNA in the absence of chemical substance: 1.1
Yeast gene YPR024W
  The level of expressed mRNA in the presence of chemical substance/The level of expressed mRNA in the absence of chemical substance: 0.8
Yeast gene YPR037C
  The level of expressed mRNA in the presence of chemical substance/The level of expressed mRNA in the absence of chemical substance: 0.9
Yeast gene YPR047W
  The level of expressed mRNA in the presence of chemical substance/The level of expressed mRNA in the absence of chemical substance: 0.9
Yeast gene YPR134W
  The level of expressed mRNA in the presence of chemical substance/The level of expressed mRNA in the absence of chemical substance: 0.9
